Results from patent publication US7026315B1, “Fungicide mixtures which are based on derivatives of morpholine or piperidine and derivatives oxime ether” (BASF Aktiengesellschaft, priority 1998, dated 2006).

Tested on: mildew of wheat (Erysiphe graminis forma specialis tritici)
Experiment: Activity against mildew of wheat (protective spray on potted wheat seedlings)
Type: in vivo
Conditions: wheat seedlings cv. Kanzler, inoculated 24 h after spraying, evaluated after 7 days
Experimental: The active compounds, separately or together, are formulated as a 10% emulsion in a mixture of 63% by weight of cyclohexanone and 27% by weight of emulsifier, and diluted with water to the desired concentration.
Evaluation is carried out by determining the infected leaf areas in percent. These percentages are converted into efficacies. The efficacy (W) is calculated as follows using Abbot's formula: W=(1−α/β)·100 α corresponds to the fungal infection of the treated plants in % and β corresponds to the fungal infection of the untreated (control) plants in %
An efficacy of 0 means that the infection level of the treated plants corresponds to that of the untreated control plants; an efficacy of 100 means that the treated plants were not infected.
The expected efficacies of the mixtures of the active compounds were determined using Colby's formula [F. S. Colby, Weeds 15, 20–22 (1967)] and compared with the observed efficacies. • Colby's formula: E=x+y−x·y/100 E expected efficacy, expressed in % of the untreated control, when using the mixture of the active compounds A and B at the concentrations a and b x efficacy, expressed in % of the untreated control, when using active compound A at a concentration of a y efficacy, expressed in % of the untreated control, when using active compound B at a concentration of b.
Leaves of potted wheat seedlings cv. “Kanzler” were sprayed to runoff point with an aqueous preparation of active compound which was prepared from a stock solution comprising 10% of active compound, 63% of cyclohexanone and 27% of emulsifier and, 24 h after the spray coating had dried on, dusted with spores of mildew of wheat (Erysiphe graminis forma specialis tritici). The test plants were subsequently placed in climatized chambers at 20–24° C. and 60–90% relative atmospheric humidity for 7 days. The extent of the development of the infection on the leaves was then determined visually.
The visually determined values for the percentage of infected leaf areas were converted into efficacies as % of the untreated control. An efficacy of 0 means the same degree of infection as in the untreated control, an efficacy of 100 means 0% infection. The expected efficacies for active compound combinations were determined using Colby's formula (Colby, S. R. “Calculating synergistic and antagonistic responses of herbicide combinations”, Weeds, 15 (1967), 20–22) and compared with the observed efficacies.

Row | Structure (SMILES) | Efficacy in % of the untreated control (0.25 ppm) [%] | Efficacy in % of the untreated control (1 ppm) [%]
1 | CC(Cc1ccc(C(C)(C)C)cc1)CN1CCCCC1 (stereo not shown) [Compound I.b, Fenpropidin] | 55 | 
2 | CCCCCCCCCCCCCN1CC(C)OC(C)C1 (stereo not shown) [Compound I.c, Tridemorph] | 0 | 0
3 | CC(Cc1ccc(C(C)(C)C)cc1)CN1C[C@@H](C)O[C@@H](C)C1 (stereo partly shown) [Compound I.a, Fenpropimorph] | 55 | 
